In patent US9556217B2, “Amphiphilic compounds” (WISCONSIN ALUMNI RESEARCH FOUNDATION, priority 2012, dated 2017):

Legend:
Bacteriorhodopsin (bR) = biological target: T1, Bacteriorhodopsin (bR) (Halobacterium salinarum, UniProt P02945); assay: Bacteriorhodopsin stability (absorbance at 554 nm); conditions: 0.2 wt % OTG+1.6 wt % agent, RT; for Maintaining the native structure of bR compared with conventional detergents: absorbance at 554 nm over 20 days
T1 construct: Frozen aliquots of purple membranes containing bR at 184 μM were thawed at room temperature; endogenous in cells; host or cells: purple membranes (native)
T1 sequence (P02945 14-261 limits assumed): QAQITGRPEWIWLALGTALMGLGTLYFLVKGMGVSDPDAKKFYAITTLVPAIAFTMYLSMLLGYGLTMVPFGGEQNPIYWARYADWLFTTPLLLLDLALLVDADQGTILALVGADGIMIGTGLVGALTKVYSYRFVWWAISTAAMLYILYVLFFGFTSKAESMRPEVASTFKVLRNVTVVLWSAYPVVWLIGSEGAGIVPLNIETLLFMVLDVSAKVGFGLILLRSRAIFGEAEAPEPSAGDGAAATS
Procedure: bR was extracted from the native purple membrane with 2.0 wt % octyl-β-D-thioglucoside (OTG) (see Bazzacco at al., Biomacromolecules 2009, 10, 3317-3326). Following ultracentrifugation to remove insoluble debris, the bR solution was diluted with amphiphile solutions to give 0.2 wt % OTG+1.6 wt % new agent or DDM. The absorbance of the solutions at 554 nm was measured periodically over 20 days. […] When the assay was conducted at a lower amphiphile concentration, 0.2 wt % OTG+0.8 wt % new agent or DDM, similar results were obtained (FIG. 3).
The procedure for the bR stability assay followed the protocol reported by Bazzacco and coworkers (Biomacromolecules 2009, 10, 3317-3326).
The procedure for the bR stability assay generally followed the reported protocol (Bazzacco et al., Biomacromolecules 2009, 10, 3317-3326). Frozen aliquots of purple membranes containing bR at 184 μM were thawed at room temperature and solubilized by using an octylthioglucoside (OTG) solution for 24 hr at 4° C. in a dark room. For this purpose, OTG (CMC=0.28 wt %) was used at 2.0 wt % in 10 mM sodium phosphate (pH 6.9). Membrane debris was then removed from the solubilized material via ultracentrifugation at 200,000 g at 4° C. for 20 min. The supernatant, including bR protein, was transferred into individual DDM, GLC, or GDN solutions, giving final concentration of OTG: new amphiphiles=0.2 wt %: 0.8 wt % (1:4) or 0.2 wt %:1.6 wt % (1:8). The stability of bR in each solution was monitored by measuring absorbance at 554 nm over 20 days.

[1] = test system: leucine transporter (LeuT); assay: LeuT functional assay ([3H]-Leu binding, SPA); type: biochemical, Aquifex aeolicus; conditions: CMC+0.04 wt % or CMC+0.2 wt %
Procedure: The new amphiphiles were then evaluated for the ability to maintain the leucine transporter (LeuT) from Aquifex aeolicus in a functional state (Quick and Javitch, Proc. Natl. Acad. Sci. USA 2007, 104, 3603-3608). The transporter was initially extracted with DDM and then diluted with amphiphile-containing solutions to generate amphiphile concentration of CMC+0.04 wt % or CMC+0.2 wt %. At both concentrations, GDN was very effective at maintaining LeuT activity, as indicated by binding of radiolabeled leucine, with preservation of >95% of initial activity after 12 days (FIG. 5c).
LeuT functionality was measured according to the procedure reported by Chae and coworkers (Nat. Methods 2010, 7, 1003-1008).
LeuT activity was measured according to the reported procedure (Chae et al., J. Am. Chem. Soc. 2010, 132, 16750-16752). […] Following protein storage at RT, at the indicated time points, samples were centrifuged and the protein concentration was assessed by determining absorbance at 280 nm. Concomitantly, for the corresponding time points, [^3H]-Leu binding was measured using scintillation proximity assay (SPA). […] Binding was assessed in 200 mM NaCl in the presence of tested compounds at the above-mentioned concentrations, and monitored using MicroBeta liquid scintillation counter (PerkinElmer).

Structure (SMILES)	Maintaining the native structure of bR compared with conventional detergents (Bacteriorhodopsin (bR))	Loss in bR protein integrity after 20 days (Bacteriorhodopsin (bR); absorbance at 554 nm)	LeuT activity preserved, % of initial activity ([1]; after 12 days at RT) [%]	Maintaining LeuT activity over 12 days ([1]; RT)
CO[C@@H]1CC[C@@]2(C)[C@H](CC[C@@H]3[C@@H]2CC[C@]2(C)[C@@H]([C@H](C)CCCOCC(C)(CO[C@@H]4OC(CO)C(O[C@@H]5OC(CO)[C@@H](O)[C@H](O)C5O)[C@@H](O)C4O)CO[C@@H]4OC(CO)[C@@H](O[C@H]5OC(CO)[C@@H](O)[C@H](O)C5O)[C@H](O)C4O)CC[C@@H]32)C1 (some centres unmarked) [GLC-2]	more effective than conventional detergents OTG and DDM	–	–	–
C[C@@H]1CC[C@@]2(OC1)O[C@H]1C[C@H]3[C@@H]4CC=C5C[C@@H](OCCC(CO[C@@H]6OC(CO)[C@@H](O[C@H]7OC(CO)[C@@H](O)C(O)C7O)C(O)C6O)CO[C@@H]6OC(CO)[C@@H](O[C@H]7OC(CO)[C@@H](O)C(O)C7O)C(O)C6O)CC[C@]5(C)[C@H]4CC[C@]3(C)[C@@H]1[C@@H]2C (some centres unmarked) [GDN, glyco-diosgenin]	more effective than conventional detergents OTG and DDM	negligible loss in protein integrity	> 95	–
CCCCCCCCCCCCO[C@@H]1O[C@H](CO)[C@@H](O[C@H]2O[C@H](CO)[C@@H](O)[C@H](O)[C@H]2O)[C@H](O)[C@H]1O [DDM, dodecyl-β-D-maltoside, reference compound]	–	–	–	lost significant activity
